Like-named read-outs stand apart in the source and are kept apart here.
Test system: Pyricularia oryzae
Assay type: in vivo
Conditions: individual active compound, rice seedlings cultivar Tai-Nong 67, protective spray, evaluated 6 days after inoculation

| Compound | Efficacy in % of the untreated control (0.25 ppm in the spray liquor) | Efficacy in % of the untreated control (4 ppm in the spray liquor) | Efficacy in % of the untreated control (1 ppm in the spray liquor) |
| --- | --- | --- | --- |
| COc1ccc(C(=CC(=O)N2CCOCC2)c2ccc(Cl)cc2)cc1OC [IIa, 3-(4-chlorophenyl)-3-(3,4-dimethoxyphenyl)-1-morpholin-4-ylpropenone] | 0% | 0% | – |
| C[C@H](Nc1c(-c2c(F)cc(F)cc2F)c(Cl)nc2ncnn12)C(F)(F)F [B] | – | – | 22% |
| CC1CCN(c2c(-c3c(F)cccc3Cl)c(Cl)nc3ncnn23)CC1 [A] | – | – | 11% |
| COc1ccc(C(=CC(=O)N2CCOCC2)c2ccc(F)cc2)cc1OC [IIb, 3-(4-fluorophenyl)-3-(3,4-dimethoxyphenyl)-1-morpholin-4-ylpropenone] | 0% | 0% | – |
| CC1CCN(c2c(-c3c(F)cc(F)cc3F)c(Cl)nc3ncnn23)CC1 [I, 5-chloro-7-(4-methylpiperidin-1-yl)-6-(2,4,6-trifluorophenyl)-[1,2,4]triazolo[1,5-a]pyrimidine] | – | – | 11% |

Source: patent publication US20060154927A1 (priority 2003, published 2006)
